Reference: ChEMBL document CHEMBL2346567, “Selective aminopeptidase-N (CD13) inhibitors with relevance to cancer chemotherapy” (Bioorg Med Chem, 2013)
Calls of active or inactive are those of the source. No cut-off for these calls is given here.

Experiments:
[1] = test system: Mus musculus; test: Toxicity in Swiss nude mouse assessed as convulsions at 100 mg/kg, ip administered once every 3 days 4 times measured post second-dose; format: organism-based; design: dose 100 mg/kg, route intraperitoneal; settings: in vivo, 72 h
[2] = test system: HUVEC; test: Antimigratory activity against human HUVEC cells after 16 hrs by wound healing assay; format: functional, cell-based
[3] = test system: Mus musculus; test: Toxicity in Swiss nude mouse assessed as catalepsy at 70 mg/kg, ip administered once every 3 days 8 times measured post second-dose; format: organism-based; design: dose 70 mg/kg, route intraperitoneal; settings: in vivo, 72 h
[4] = Cytotoxicity against human HUVEC cells assessed as concentration of compound causing 50% cell death after 24 hrs; format: cell-based; settings: read-out: Activity
[5] = test system: HUVEC; test: Antimigratory activity against human HUVEC cells assessed as inhibition of VEGF-induced migration at 0.1 uM after 16 hrs by Boyden chamber assay; format: functional
[6] = test system: Mus musculus; test: Toxicity in Swiss nude mouse assessed as transient body weight loss at 100 mg/kg, ip measured up to 2 days relative to control; format: organism-based; design: dose 100 mg/kg, route intraperitoneal; settings: in vivo, 48 h
[7] = test system: HUVEC; test: Antiangiogenic activity against human HUVEC cells assessed as inhibition of capillary tube formation at 1 uM after 24 hrs by phase contrast microscopic analysis; format: functional, cell-based
[8] = Chemical stability of the compound in DMSO solution at 5 mg/ml after 20 days at -20 degC; format: physicochemical; settings: 480 h
[9] = molecular target: T1, Stromelysin-3 (Homo sapiens) (UniProt P24347); test: Inhibition of MMP11 (unknown origin) up to 50 uM
T1 sequence (whole entry): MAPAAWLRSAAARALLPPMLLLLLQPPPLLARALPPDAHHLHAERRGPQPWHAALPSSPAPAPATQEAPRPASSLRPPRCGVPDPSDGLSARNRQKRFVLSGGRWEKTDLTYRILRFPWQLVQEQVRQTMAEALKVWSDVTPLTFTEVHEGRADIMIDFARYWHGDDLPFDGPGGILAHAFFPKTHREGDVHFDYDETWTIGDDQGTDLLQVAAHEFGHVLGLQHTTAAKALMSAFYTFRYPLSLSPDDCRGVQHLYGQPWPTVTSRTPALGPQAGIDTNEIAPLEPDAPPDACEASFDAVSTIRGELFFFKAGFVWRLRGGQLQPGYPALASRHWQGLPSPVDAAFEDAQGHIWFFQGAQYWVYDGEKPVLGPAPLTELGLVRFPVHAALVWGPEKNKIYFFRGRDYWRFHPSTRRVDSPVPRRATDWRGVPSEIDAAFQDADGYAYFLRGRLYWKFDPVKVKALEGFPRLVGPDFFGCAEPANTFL

[10] = Chemical stability of the compound in DMSO solution at 5 mg/ml after 20 days at 4 degC; format: physicochemical; settings: 480 h
[11] = molecular target: Aminopeptidase N (Homo sapiens, UniProt P15144)
Sequence of Aminopeptidase N (Homo sapiens, UniProt P15144) (P15144 whole entry): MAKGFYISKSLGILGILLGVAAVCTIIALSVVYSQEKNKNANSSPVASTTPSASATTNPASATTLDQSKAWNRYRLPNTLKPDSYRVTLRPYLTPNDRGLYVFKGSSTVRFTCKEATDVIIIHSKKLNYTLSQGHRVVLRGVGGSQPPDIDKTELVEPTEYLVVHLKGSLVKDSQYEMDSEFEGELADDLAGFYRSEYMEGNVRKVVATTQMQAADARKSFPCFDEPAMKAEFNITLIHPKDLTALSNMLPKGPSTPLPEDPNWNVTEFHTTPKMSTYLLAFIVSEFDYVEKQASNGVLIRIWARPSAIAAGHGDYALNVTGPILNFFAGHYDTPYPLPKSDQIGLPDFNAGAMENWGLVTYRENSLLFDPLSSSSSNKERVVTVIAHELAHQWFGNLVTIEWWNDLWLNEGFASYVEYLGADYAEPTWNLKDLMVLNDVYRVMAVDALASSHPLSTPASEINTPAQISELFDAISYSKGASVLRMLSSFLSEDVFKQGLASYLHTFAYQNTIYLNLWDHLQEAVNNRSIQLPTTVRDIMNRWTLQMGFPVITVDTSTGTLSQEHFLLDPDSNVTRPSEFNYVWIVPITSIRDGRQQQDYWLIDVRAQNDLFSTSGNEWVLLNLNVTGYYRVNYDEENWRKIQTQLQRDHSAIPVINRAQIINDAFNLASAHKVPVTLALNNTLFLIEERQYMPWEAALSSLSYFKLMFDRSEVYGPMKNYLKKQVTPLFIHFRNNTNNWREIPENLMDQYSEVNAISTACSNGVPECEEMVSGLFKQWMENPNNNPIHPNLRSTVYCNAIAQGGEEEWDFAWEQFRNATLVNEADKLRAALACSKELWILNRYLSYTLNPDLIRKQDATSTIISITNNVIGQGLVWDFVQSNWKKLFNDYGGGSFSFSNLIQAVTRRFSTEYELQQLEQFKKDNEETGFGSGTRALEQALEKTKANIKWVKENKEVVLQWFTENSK
Description: Inhibition of human APN using L-leucine-p-nitroanilide as substrate measured every 10 mins for 2 hrs by spectrophotometric analysis

[12] = molecular target: Matrix metalloproteinase-9 (Homo sapiens) (UniProt P14780); test: Inhibition of MMP9 (unknown origin) up to 50 uM
Sequence of Matrix metalloproteinase-9 (Homo sapiens) (P14780 whole entry): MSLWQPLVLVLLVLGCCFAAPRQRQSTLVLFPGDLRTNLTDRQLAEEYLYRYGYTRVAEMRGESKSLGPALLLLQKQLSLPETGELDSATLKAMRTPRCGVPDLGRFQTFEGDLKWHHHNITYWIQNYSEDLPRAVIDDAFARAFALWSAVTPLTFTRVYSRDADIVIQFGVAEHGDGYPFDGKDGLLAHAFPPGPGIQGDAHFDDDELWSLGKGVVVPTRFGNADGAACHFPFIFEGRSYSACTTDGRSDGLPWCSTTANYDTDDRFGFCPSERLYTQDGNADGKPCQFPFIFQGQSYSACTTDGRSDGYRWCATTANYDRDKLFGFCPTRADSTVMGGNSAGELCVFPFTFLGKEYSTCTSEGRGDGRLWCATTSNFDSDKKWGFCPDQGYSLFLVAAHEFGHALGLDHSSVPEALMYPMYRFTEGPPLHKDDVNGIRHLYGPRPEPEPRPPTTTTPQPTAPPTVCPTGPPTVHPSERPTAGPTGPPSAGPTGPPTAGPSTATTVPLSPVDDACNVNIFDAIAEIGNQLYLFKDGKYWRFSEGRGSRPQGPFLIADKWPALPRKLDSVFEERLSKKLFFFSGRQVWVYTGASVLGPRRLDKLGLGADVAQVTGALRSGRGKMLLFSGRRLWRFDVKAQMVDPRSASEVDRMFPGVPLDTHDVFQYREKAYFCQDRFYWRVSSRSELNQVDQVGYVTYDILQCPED

[13] = molecular target: Macrophage metalloelastase (Homo sapiens) (UniProt P39900); test: Inhibition of MMP12 (unknown origin) up to 50 uM
Sequence of Macrophage metalloelastase (Homo sapiens) (P39900 106-470 limits assumed): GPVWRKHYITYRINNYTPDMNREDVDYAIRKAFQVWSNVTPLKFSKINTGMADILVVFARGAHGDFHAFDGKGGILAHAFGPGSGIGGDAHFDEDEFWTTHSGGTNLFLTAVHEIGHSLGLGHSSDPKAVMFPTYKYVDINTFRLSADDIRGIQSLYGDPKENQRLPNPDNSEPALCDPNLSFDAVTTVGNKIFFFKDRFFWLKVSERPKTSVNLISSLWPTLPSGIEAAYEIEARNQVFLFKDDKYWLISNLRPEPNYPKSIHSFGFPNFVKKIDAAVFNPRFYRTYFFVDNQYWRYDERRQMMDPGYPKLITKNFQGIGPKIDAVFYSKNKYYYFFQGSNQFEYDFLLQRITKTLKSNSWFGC

[14] = Chemical stability of the compound in DMSO solution at 5 mg/ml after 20 days at 25 degC; format: physicochemical; settings: 480 h
[15] = test system: A673; test: Antitumor activity against human A673 cells xenografted in athymic nude mouse assessed as tumor growth inhibition at 40 mg/kg, ip administered as single dose measured on day 26 relative to control; format: functional; settings: 624 h, route intraperitoneal, read-out: TGI
[16] = molecular target: 72 kDa type IV collagenase (Homo sapiens) (UniProt P08253); test: Inhibition of MMP2 (unknown origin) up to 50 uM
Sequence of 72 kDa type IV collagenase (Homo sapiens) (P08253 110-660 limits assumed): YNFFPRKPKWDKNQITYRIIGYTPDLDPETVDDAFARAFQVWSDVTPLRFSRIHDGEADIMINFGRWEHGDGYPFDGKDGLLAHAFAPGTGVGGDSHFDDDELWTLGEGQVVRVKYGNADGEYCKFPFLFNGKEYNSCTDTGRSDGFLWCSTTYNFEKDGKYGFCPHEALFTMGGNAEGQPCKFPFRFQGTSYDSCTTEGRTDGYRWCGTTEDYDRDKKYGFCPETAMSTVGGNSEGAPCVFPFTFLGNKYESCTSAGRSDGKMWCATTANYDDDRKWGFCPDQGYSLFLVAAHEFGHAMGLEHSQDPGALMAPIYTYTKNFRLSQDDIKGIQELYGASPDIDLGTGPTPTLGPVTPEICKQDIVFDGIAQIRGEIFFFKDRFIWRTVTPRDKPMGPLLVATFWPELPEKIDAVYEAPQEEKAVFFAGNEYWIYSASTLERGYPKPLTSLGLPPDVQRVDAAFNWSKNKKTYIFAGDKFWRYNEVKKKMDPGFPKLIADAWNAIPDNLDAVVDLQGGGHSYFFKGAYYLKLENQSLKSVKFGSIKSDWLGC

[17] = test system: A673; test: Antiangiogenic activity against human A673 cells xenografted in athymic nude mouse assessed as reduction in microvessel density at 40 mg/kg, ip administered as single dose measured on day 26 relative to control; format: functional, organism-based; design: dose 40 mg/kg
[18] = molecular target: T2, Aminopeptidase N (Mus musculus, UniProt P97449); test: Inhibition of mouse APN using L-leucine-p-nitroanilide as substrate measured every 10 mins for 2 hrs by spectrophotometric analysis
T2 sequence (P97449 whole entry): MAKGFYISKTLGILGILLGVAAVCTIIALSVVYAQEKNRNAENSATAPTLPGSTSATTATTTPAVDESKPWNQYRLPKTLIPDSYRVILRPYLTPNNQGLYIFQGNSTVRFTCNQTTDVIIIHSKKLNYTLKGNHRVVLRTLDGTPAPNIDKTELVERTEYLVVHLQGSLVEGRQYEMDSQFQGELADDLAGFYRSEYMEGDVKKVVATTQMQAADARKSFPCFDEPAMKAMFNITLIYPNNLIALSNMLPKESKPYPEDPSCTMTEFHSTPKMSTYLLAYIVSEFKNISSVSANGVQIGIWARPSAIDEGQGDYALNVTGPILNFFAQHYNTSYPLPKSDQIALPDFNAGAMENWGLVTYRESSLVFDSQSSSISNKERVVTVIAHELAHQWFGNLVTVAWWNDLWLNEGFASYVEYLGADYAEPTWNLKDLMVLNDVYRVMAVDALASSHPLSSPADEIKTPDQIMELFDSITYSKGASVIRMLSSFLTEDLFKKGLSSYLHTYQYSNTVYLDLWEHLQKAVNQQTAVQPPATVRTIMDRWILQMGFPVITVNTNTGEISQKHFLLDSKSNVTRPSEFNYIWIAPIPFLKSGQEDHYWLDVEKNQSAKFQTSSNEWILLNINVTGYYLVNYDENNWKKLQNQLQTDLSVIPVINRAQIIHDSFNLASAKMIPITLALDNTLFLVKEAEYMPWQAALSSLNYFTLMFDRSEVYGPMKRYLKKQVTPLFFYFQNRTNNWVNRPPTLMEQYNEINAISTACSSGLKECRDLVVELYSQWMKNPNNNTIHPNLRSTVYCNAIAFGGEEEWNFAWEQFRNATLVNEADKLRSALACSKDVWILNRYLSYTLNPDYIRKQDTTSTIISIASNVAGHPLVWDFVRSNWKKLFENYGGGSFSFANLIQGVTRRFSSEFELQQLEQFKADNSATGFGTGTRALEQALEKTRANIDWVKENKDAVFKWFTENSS

[19] = test system: Caco-2; test: Antimigratory activity against human Caco2/TC7 cells up to 1 uM after 16 hrs by wound healing assay; format: functional, cell-based
[20] = test system: Mus musculus; test: Toxicity in Swiss nude mouse assessed as adverse effects at 40 mg/kg, ip administered once every 3 days 8 times measured after 29 days; format: organism-based; design: dose 40 mg/kg, route intraperitoneal; settings: in vivo, 696 h
[21] = test system: HUVEC; test: Antimigratory activity against human HUVEC cells at 0.1 to 1 uM after 16 hrs by wound healing assay; format: functional, cell-based
[22] = test system: Caco-2; test: Antimigratory activity against human Caco2/TC7 cells after 16 hrs by wound healing assay; format: functional, cell-based
[23] = molecular target: Collagenase 3 (Homo sapiens) (UniProt P45452); test: Inhibition of MMP13 (unknown origin) up to 50 uM
[24] = test system: A673; test: Antitumor activity against human A673 cells xenografted in athymic nude mouse assessed as tumor growth inhibition at 30 mg/kg, ip administered as single dose measured on day 26 relative to control; format: functional; settings: 624 h, route intraperitoneal, read-out: TGI
[25] = Antimigratory activity against human Caco2/TC7 cells at 0.1 uM after 16 hrs by wound healing assay; format: functional, Caco-2
[26] = test system: HT-29; test: Antitumor activity against human HT-29 cells expressing low level of APN xenografted in athymic nude mouse at 30 mg/kg, ip administered once every 3 days relative to control; format: functional; settings: HT-29, ip, 72 h, route intraperitoneal, read-out: TGI
[27] = Antitumor activity against human colon cancer cells expressing low level of APN xenografted in athymic nude mouse at 30 mg/kg, ip administered once every 3 days relative to control; format: functional; settings: Cancer cell lines, 72 h, route intraperitoneal, read-out: TGI
[28] = Antimigratory activity against human Caco2/TC7 cells at 1 uM after 16 hrs by wound healing assay; format: functional, Caco-2
[29] = test system: HUVEC; test: Antimigratory activity against human HUVEC cells assessed as inhibition of VEGF-induced migration at 1 uM after 16 hrs by Boyden chamber assay; format: functional
[30] = Antitumor activity against human colon cancer cells expressing high level of APN xenografted in athymic nude mouse at 30 mg/kg, ip administered once every 3 days relative to control; format: functional; settings: Cancer cell lines, 72 h, route intraperitoneal, read-out: TGI
[31] = test system: HUVEC; test: Antimigratory activity against human HUVEC cells at 0.01 uM after 16 hrs by wound healing assay; format: functional, cell-based
[32] = test system: A673; test: Antiangiogenic activity against human A673 cells xenografted in athymic nude mouse assessed as reduction in microvessel density at 30 mg/kg, ip administered as single dose measured on day 26 relative to control; format: functional, organism-based; design: dose 30 mg/kg
[33] = test system: HUVEC; test: Antiangiogenic activity against human HUVEC cells assessed as inhibition of capillary tube formation at 300 uM after 24 hrs by phase contrast microscopic analysis; format: functional, cell-based
[34] = test system: HUVEC; test: Antiangiogenic activity against human HUVEC cells assessed as inhibition of capillary tube formation at 10 uM after 24 hrs by phase contrast microscopic analysis; format: functional, cell-based

Compound	Activity [2]	CC50 at 24 h [4] [nM]	inhibition [7]	Stability [8]	inhibition [9]	Stability [10]	Ki [11] [nM]	inhibition [12]	inhibition [13]	Stability [14]	inhibition [16]	Ki [18] [nM]	Activity [20]	Activity [21]	Activity [22]	inhibition [23]	further results
Cl.NC1CCc2cccc(-c3ccccc3)c2CC1=O (stereo unspecified)	Dose-dependent effect	20000	Active	Stable	inactive	Stable	11	inactive	inactive	Stable	inactive	10	Non-toxic	Active	Dose-dependent effect	inactive	Activity [1]: Toxic; Activity [3]: Toxic; inhibition at 0.1 µM [5]: 70%; Activity [6]: Toxic; inhibition in vivo at 40 mg/kg [15]: 18%; Activity [17]: inactive; Activity [19]: inactive
NC1CCc2c(Br)ccc(-c3ccccc3)c2CC1=O (stereo unspecified)	Dose-dependent effect	10000	Active	Stable	inactive	Stable		inactive	inactive	Stable	inactive	0.2	Non-toxic	Active	Dose-dependent effect	inactive	inhibition in vivo at 30 mg/kg [24]: 44%; Activity [25]: 30%; inhibition in vivo at 30 mg/kg [26]: 15%; inhibition in vivo at 30 mg/kg [27]: 8%; Activity [28]: 40%; inhibition at 1 µM [29]: 70%; inhibition in vivo at 30 mg/kg [30]: 26%; Activity [31]: Active; Activity [32]: Active
CC(C)C[C@H](NC(=O)[C@@H](O)[C@H](N)Cc1ccccc1)C(=O)O																	inhibition [33]: Active
NC1CCc2ccccc2CC1=O (stereo unspecified)		100000			inactive		2000	inactive	inactive		inactive					inactive	inhibition [34]: Active
